Test results from patent US20100130600A1, “LIPOPROTEIN LIPASE AND ITS EFFECT ON STATIN TREATMENTS” (CEDARS-SINAI MEDICAL CENTER, priority 2007, published 2010).

Experiment: Post-CABG Trial: lipid response to lovastatin therapy (baseline vs post-treatment lipid levels)
Type: in vivo, human
Method: As described herein, the inventors asked whether LPL haplotypes influence response to lipid-lowering therapy. They studied 830 subjects from the Post-Coronary Artery Bypass Graft trial, in which subjects with at least one patent saphenous vein graft were treated moderately or aggressively with lovastatin. A lipid profile was obtained at baseline and 4-5 years after treatment. 12 SNPs spanning the 3′ end of LPL were genotyped using the 5′-exonuclease (Taqman MBG) reaction. Haplotypes were constructed using the accelerated expectation maximization algorithm implemented in the program Haploview. Association with lipid response was evaluated using analysis of covariance (ANCOVA). Age, body mass index, race, current smoking status, time between CABG and study enrollment, and lovastatin treatment group were taken as covariates in the association analyses. […] Conversely, Haplotypes 6, 7, and 8 were each associated with increased HDL-C response to therapy compared to respective non-carriers. Haplotype 2 was associated with a smaller increment in triglycerides (Haplotype 2 carriers: +2.6% versus non-carriers: +11.8% change in triglycerides, P=0.02). These effects of LPL haplotypes on HDL-C and triglyceride response were independent of whether subjects were in the intensive or moderate treatment group. […] The most common haplotype, haplotype 1, was protective against graft worsening or occlusion. LPL may influence atherosclerosis risk through pleiotropic effects on each aspect of the metabolic syndrome.
This genetic association study is ancillary to the Post-Coronary Artery Bypass Graft Trial (Post-CABG Trial) (Taylor K D, Genet Med 2004, 6: 481-486; The Post Coronary Artery Bypass Graft Trial Investigators, N Engl J Med 1997, 336: 153-162). A total of 1351 subjects from seven clinical centers throughout North America were included in the clinical trial and all were eligible as participants in this genetic ancillary study. Inclusion and exclusion criteria have been previously described (The Post Coronary Artery Bypass Graft Trial Investigators, N Engl J Med 1997, 336: 153-162). Subjects were randomly assigned for treatment to lower LDL-cholesterol levels with lovastatin, aggressively (target LDL 1.55-2.20 mmol/L (60-85 mg/dL)), cholestryramine added to lovastatin if necessary to reach target) or moderately (target LDL 3.36-3.62 mmol/L (130-140 mg/dL)). For the genetic study, DNA was isolated from 903 subjects following standard protocols. Follow-up complete angiographic data, lipid values, and DNA were available from 891 of these individuals. Subjects in this genetic study were collected in the latter years of the larger Post-CABG trial.
All demographic, family history, medical history, and clinical data were collected as part of the Post-CABG Trial.14 The progression of atherosclerosis was quantitatively determined by comparison of an initial angiogram at enrollment with a follow-up angiogram repeated an average of 4.3 years later. Baseline and follow-up angiography were obtained with catheterization techniques that permitted computer-assisted quantitative measurement. An initially patent graft was defined as having progression of atherosclerosis if there was a decrease of 0.6 mm or more in lumen diameter at the site of greatest change at follow-up. Subjects with “progression of atherosclerosis” were defined as those subjects with one or more grafts showing progression. Graft occlusion was also assessed. Baseline and post-treatment lipid levels (total cholesterol, TC; LDL-cholesterol, LDL-C; HDL-cholesterol, HDL-C; and triglycerides, TG) were obtained.
The primary phenotypes analyzed for association with LPL haplotypes were: a) the progression of atherosclerosis, and b) lipid response to lovastatin therapy. Secondary analyses included association of the LPL haplotypes with baseline lipid and systolic and diastolic blood pressure (SBP and DBP) measurements. […]

[1] = 891 post-CABG subjects, mean ± SD (range)
[2] = aggressive treatment group (target LDL 60-85 mg/dL, cholestyramine added if necessary)
[3] = moderate treatment group (target LDL 130-140 mg/dL)

CC[C@H](C)C(=O)O[C@H]1C[C@@H](C)C=C2C=C[C@H](C)[C@H](CC[C@@H]3C[C@@H](O)CC(=O)O3)[C@H]21 [lovastatin]
HDL-C response [1]: 13.8 ± 24.4 (−61.9-153.1) % | LDL-C response [1]: −25.7 ± 20.6 (−78.8-45.9) % | Total cholesterol response [1]: −15.3 ± 16.3 (−58.4-43.5) % | Triglyceride response [1]: 7.5 ± 53.0 (−81.6-330.2) % | reduction in LDL-C (Post-CABG trial, overall): 26% | reduction in total cholesterol (TC) (Post-CABG trial, overall): 15% | reduction in LDL-C [2]: 37% | reduction in total cholesterol (TC) [2]: 23% | Response in HDL-C and triglycerides (TG) (aggressive versus moderate treatment group): did not differ between the two treatment groups | Percent change in HDL-C (carriers of LPL haplotype 12-1, mean ± SD): 12.6 ± 24.3 (568) % | change in triglycerides (carriers of LPL haplotype 12-2): +2.6% | Percent change in HDL-C (carriers of LPL haplotype 12-2, mean ± SD): 12.4 ± 24.5 (295) % | Percent change in HDL-C (carriers of LPL haplotype 12-3, mean ± SD): 14.2 ± 23.5 (262) % | Percent change in HDL-C (carriers of LPL haplotype 12-5, mean ± SD): 11.4 ± 25.6 (61) % | Percent change in HDL-C (carriers of LPL haplotype 12-6, mean ± SD): 24.8 ± 19.8 (52) % | Percent change in HDL-C (carriers of LPL haplotype 12-7, mean ± SD): 21.9 ± 24.1 (44) % | Percent change in HDL-C (carriers of LPL haplotype 12-8, mean ± SD): 23.0 ± 26.0 (43) % | reduction in LDL-C [3]: 14% | reduction in total cholesterol (TC) [3]: 7% | Percent change in HDL-C (non-carriers of LPL haplotype 12-1, mean ± SD): 15.2 ± 24.2 (261) % | change in triglycerides (non-carriers of LPL haplotype 12-2): +11.8% | Percent change in HDL-C (non-carriers of LPL haplotype 12-2, mean ± SD): 14.0 ± 24.2 (534) % | Percent change in HDL-C (non-carriers of LPL haplotype 12-3, mean ± SD): 13.1 ± 24.7 (567) % | Percent change in HDL-C (non-carriers of LPL haplotype 12-5, mean ± SD): 13.6 ± 24.2 (768) % | Percent change in HDL-C (non-carriers of LPL haplotype 12-6, mean ± SD): 12.7 ± 24.4 (777) % | Percent change in HDL-C (non-carriers of LPL haplotype 12-7, mean ± SD): 13.0 ± 24.3 (785) % | Percent change in HDL-C (non-carriers of LPL haplotype 12-8, mean ± SD): 12.8 ± 24.4 (786) %
